Measurements taken from US10085449B2, “N-[1-((6-chloropyridin-3-yl)methyl)pyridin-2(1H)-ylidene]-2,2,2- trifluoroacetamide for control of agricultural/horticultural pests” (priority 2010, dated 2018).

Experiments:
[1] = system: small brown planthopper; test: whole plant or invertebrate; type: in vivo; conditions: Laodelphax striatellus, foliar
Procedure: Rice seedlings grown in pots were subjected to the foliar application of solutions of the inventive compounds at a predetermined concentration prepared to 50% acetone/water (containing 0.05% Tween 20). The treated seedlings were air dried, following which second-instar larvae were released onto the seedlings. The seedlings and larvae were then held in an incubation chamber at 25° C. (16-hour period of light, 8-hour dark period). Three days after released, the numbers of live and dead insects were counted, and the mortality was calculated from the following formula. This was a two-replication test. Mortality (%)=[number of dead insects/(number of live insects+number of dead insects)]×100

[2] = system: brown-winged green bug; test: Brown-winged green bug control test; type: in vivo; conditions: 50 ppm foliar application on young apples, adults, 6 days after release
Procedure: Young apples that had been collected in the field were sprayed with solutions of the inventive compounds at a predetermined concentration prepared to 50% acetone/water (containing 0.05% Tween 20). The treated fruits were air-dried, placed in plastic cups and two adult brown-winged green bugs were released into each cup. Following release of the insects, the fruits and insects were held in an incubation chamber at 25° C. (16-hour period of light, 8-hour dark period). Six days after released, the numbers of live and dead insects were counted, and the mortality was calculated from the following formula. Mortality (%)=[number of dead insects/(number of live insects+number of dead insects)]×100

[3] = system: small brown planthopper; test: whole plant or invertebrate; type: in vivo; conditions: Laodelphax striatellus, in Triticum aestivum, 96 h
Summary of the method: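 Roots of 48-h wheat seedlings took up compound in 10% acetone/water for 72 h, then ten second-instar larvae were released per seedling and held at 25 °C (16 h light/8 h dark). Mortality counted four days after release; two replications.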

[4] = system: small brown planthopper; test: whole plant or invertebrate; type: in vivo; conditions: Laodelphax striatellus, 72 h
Summary of the method: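 Rice seedlings in pots soil-drenched with compound at a set concentration in 10% acetone/water; ten second-instar larvae released per seedling 3 days later. Held at 25° C. (16 h light/8 h dark) and scored live/dead 3 days after release. Mortality (%) = dead/(live+dead)×100; two replications.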

[5] = system: house fly crude enzyme extract; test: In vitro metabolic test using house fly crude enzyme extract; type: in vitro ADME; conditions: house fly crude enzyme extract with NADP+ regenerating system, 25° C., 40 hours, LC/MS
Procedure: As mentioned in Pest Management Science, 59(3), 347-352 (2003) and the Journal of Pesticide Science, 29(2), 110-116 (2004), imidacloprid is known to be inactivated by incurring oxidative metabolism, which is thought to be one mechanism of acquiring resistance to this agent. The following experiment was carried out to confirm the effects in pests which have acquired such resistance.
An amount of 10 mL of a potassium phosphate buffer solution (pH 7.4, containing 1 mM EDTA) was added to adult house flies (0.645 g), and the flies were thoroughly homogenized in a Physcotron (Niti-On Medical and Physical Instruments Manufacturing Co.). The homogenate was then centrifuged at 10,000 g for 15 minutes. The resulting supernatant was additionally centrifuged at 100,000 g for 60 minutes, giving a precipitate. The precipitate was dissolved in 1 mL of a potassium phosphate buffer, and the resulting solution was used as the crude enzyme extract. The enzyme extraction operations were all carried out on ice or at 4° C.
The reagents were mixed in the following proportions within a 1.5 mL tube, and the reaction was effected at 25° C. for 40 hours. Following the reaction, 1 mL of acetone was added and the mixture was stirred, following which the precipitate that formed was centrifuged at 12,000 rpm for 5 minutes. […]

[6] = system: Haemaphysalis longicornis; test: Tick (Haemaphysalis longicornis) control test on body surface of mouse; type: in vivo, Haemaphysalis longicornis on mice (ICR); conditions: 20 μL of 1,000-fold dilution of agent prepared as in Formulation Example 11 on mouse body surface, larval ticks, 3 days after release
Procedure: Ventral fur was shaved from an area having a diameter of about 2 cm in mice (ICR, 5-week-old males), and a 15 mL polystyrene conical tube cut to a length of about 1.5 cm was attached to the shaved area using instant glue.
An amount of 20 μL of a 1,000-fold dilution of the pest control agent prepared in the same way as in Formulation Example 11 was added dropwise onto the body surface of the mice within the attached tube. After the solution was allowed to dry thoroughly, ten or more larval ticks (Haemaphysalis longicornis) were released into the tube, which was then capped. Three days after released, the numbers of live and dead ticks were counted, and the mortality was calculated from the following formula. Blood-feeding inhibition (%)=100−[number of feeding ticks/(number of live ticks+number of dead ticks)]×100

[7] = read-out: Insecticidal effects (mortality), small brown planthopper second-instar larvae
[8] = soil, read-out: Insecticidal effects (mortality), small brown planthopper second-instar larvae

O=C(N=c1ccccn1Cc1ccc(Cl)nc1)C(F)(F)F [Compound 212, N-[1-((6-chloropyridin-3-yl)methyl)pyridin-2(1H)-ylidene]-2,2,2-trifluoroacetamide]
mortality at 0.313 ppm [1, 7]: 75%
mortality at 1.25 ppm [1, 7]: 100%
mortality at 5 ppm [1, 7]: 100%
mortality at 100 ppm ([1]; in Oryza sativa, 72 h): ≥ 80%
Mortality [2]: at least 80%
mortality at 20 µg/seedling [3]: ≥ 80%
mortality at 0.0078 mg/seedling [3, 7]: 50%
mortality at 0.016 mg/seedling [3, 7]: 50%
mortality at 0.031 mg/seedling [3, 7]: 100%
mortality at 0.063 mg/seedling [3, 7]: 100%
mortality at 0.125 mg/seedling [3, 7]: 100%
mortality at 0.25 mg/seedling [3, 7]: 100%
mortality at 0.5 mg/seedling [3, 7]: 100%
mortality at 2 mg/seedling [3, 7]: 100%
mortality at 20 mg/seedling [3, 7]: 100%
pest or weed control at 0.002 mg/pot ([4]; rice soil drenching, 0.002 mg/pot (Table 13), read-out: Small brown planthopper (rice soil drenching), effect): 85%
pest or weed control at 0.005 mg/pot ([4]; rice soil drenching, 0.005 mg/pot (Table 13), read-out: Small brown planthopper (rice soil drenching), effect): 95%
pest or weed control at 0.01 mg/pot ([4]; rice soil drenching, 0.01 mg/pot (Table 13), read-out: Small brown planthopper (rice soil drenching), effect): 100%
pest or weed control at 0.05 mg/pot ([4]; rice soil drenching, 0.05 mg/pot (Table 13), read-out: Small brown planthopper (rice soil drenching), effect): 100%
mortality at 0.005 mg/seedling ([4]; soil): 95%
mortality at 0.05 mg/seedling ([4]; soil): ≥ 80%
mortality at 0.002 mg/pot [4, 8]: 85%
mortality at 0.005 mg/pot [4, 8]: 95%
mortality at 0.01 mg/pot [4, 8]: 100%
mortality at 0.05 mg/pot [4, 8]: 100%
Sum of the surface area percentages for the metabolites [5]: 0.08%
Blood-feeding inhibition [6]: 91%
